Assay results from ChEMBL document CHEMBL1146192, “Substituted chromones and quinolones as potent melanin-concentrating hormone receptor 1 antagonists” (Bioorg Med Chem Lett, 2006).

Legend:
Assay type in all cases: ADME, organism-based
[1] = Volume of distribution in Sprague-Dawley rat at 2.5 mg/kg, iv and 10 mg/kg, po; conditions: in vivo, read-out: Vdss
[2] = AUC in Sprague-Dawley rat at 10 mg/kg, po; set-up: dose 10 mg/kg, route oral; conditions: plasma
[3] = Oral bioavailability in Sprague-Dawley rat at 2.5 mg/kg, iv and 10 mg/kg, po; conditions: in vivo
[4] = Ratio of drug level in Sprague-Dawley rat brain against plasma at 2.5 mg/kg, iv and 10 mg/kg, po after 1 hr; conditions: read-out: BPR
[5] = Ratio of drug level in Sprague-Dawley rat brain against plasma at 2.5 mg/kg, iv and 10 mg/kg, po after 4 hrs; conditions: read-out: BPR

Vd [1]: 58 L/kg
AUC [2]: 859 ng·h/mL
bioavailability [3]: 66%
Kp at 1 h [4]: 9.5
Kp at 4 h [5]: 25
SMILES: CN(C)[C@@H]1CCN(c2ccc(-c3coc4cc(-c5ccc(Cl)cc5)ccc4c3=O)cn2)C1.Cl
